Some test systems named below: HOP-62 NSCLC; M14 melanoma; U251 CNS; RPMI-8226 leukemia; NCI-H522 lung; OVCAR-8 ovarian; NCI-H23 lung; HT29 colon; A498 renal; SK-MEL-2 melanoma.
What all share (assay): NCI-60 cell line screen, 48 h

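Cultured in 96-well plates, cells were exposed to test compound for 48 hours across five concentrations. GI50 = concentration required for 50% inhibition of growth. TGI is the concentration that stops growth completely.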

Drawing on PubChem BioAssay (NCI), this text covers TGI and GI50 for eleven compounds.

As for `CN1C(c2ccccc2)CC(=Nc2ccccc2)CC1c1ccccc1` (stereo unspecified), the TGI came out at 34.6 µM in the test on HOP-62 NSCLC; 27.9 µM in the test on M14 melanoma; 19.6 µM with U251 CNS; 13.7 µM in the test with RPMI-8226 leukemia; 17.4 µM in the test with NCI-H522 lung; 20.6 µM in the test on OVCAR-8 ovarian. The TGI in the test on NCI-H23 lung was determined as 39.9 µM; with HT29 colon it was 34.2 µM.

With `CCOC(=O)/C(C#N)=C(O)/C(=C/c1ccccc1Cl)NC(=O)c1ccccc1`, the TGI was over 100 µM in the test with HOP-62 NSCLC; over 100 µM in the test on M14 melanoma; over 100 µM in the test on U251 CNS; 55.1 µM in the test on RPMI-8226 leukemia; over 100 µM in the test with NCI-H522 lung; over 100 µM with A498 renal. In addition, the TGI in the test on OVCAR-8 ovarian, in the test on NCI-H23 lung and with HT29 colon was over 100 µM in each case.

For `COc1cc(C)cc2c1OC(c1ccccc1)CC2=O` (stereo unspecified), the GI50 in the test on HOP-62 NSCLC, in the test with SK-MEL-2 melanoma, with M14 melanoma, with U251 CNS, in the test with A498 renal and in the test on OVCAR-8 ovarian was over 100 µM throughout. The GI50 in the test with NCI-H23 lung and in the test on HT29 colon was over 100 µM throughout. The TGI with HOP-62 NSCLC, in the test on SK-MEL-2 melanoma, with M14 melanoma, in the test on U251 CNS, with A498 renal and with OVCAR-8 ovarian was over 100 µM in each case. Besides, the TGI in the test with NCI-H23 lung and with HT29 colon was over 100 µM each time.

Consider `COc1ccc(Cl)cc1N1C(=O)C(Cl)=C(Nc2cccc(O)c2)C1=O`, for which the GI50 was 23.7 µM in the test with HOP-62 NSCLC; 14 µM with M14 melanoma; 17.5 µM in the test on U251 CNS; 7.01 µM with RPMI-8226 leukemia; 6.48 µM in the test with NCI-H522 lung; 15.1 µM in the test on OVCAR-8 ovarian. The GI50 in the test on NCI-H23 lung was 16.6 µM; in the test on HT29 colon, 19.9 µM. The TGI in the test with HOP-62 NSCLC is 74.8 µM; with M14 melanoma, 29.9 µM; in the test on U251 CNS, 48 µM; with RPMI-8226 leukemia, 32.3 µM; in the test on NCI-H522 lung, 20.1 µM; in the test with OVCAR-8 ovarian it was 31.2 µM. Besides, the TGI amounted to 41.4 µM with NCI-H23 lung and 59.9 µM in the test on HT29 colon.

Regarding `Cc1cccc(C(C)(C)C)c1NC(=O)CC1C(=O)Nc2ccccc2S1=O` (stereo unspecified), the TGI in the test on HOP-62 NSCLC, in the test with SK-MEL-2 melanoma, in the test on M14 melanoma, in the test on U251 CNS, in the test with RPMI-8226 leukemia and in the test on NCI-H522 lung was over 100 µM throughout. In addition, the TGI in the test with OVCAR-8 ovarian is over 100 µM; in the test on NCI-H23 lung, 67.6 µM; in the test with HT29 colon, over 100 µM.

`C/C(=N\NC(N)=S)c1ccc(/C(C)=N/NC(N)=S)cc1`: the TGI in the test with HOP-62 NSCLC, in the test with M14 melanoma, in the test with U251 CNS, in the test with RPMI-8226 leukemia, in the test on NCI-H522 lung and in the test with A498 renal was over 100 µM each time. For the same compound, the TGI with OVCAR-8 ovarian, in the test on NCI-H23 lung and in the test on HT29 colon was over 100 µM throughout.

Turning to `N=C(c1ccccc1)N1CCCCC1`, the TGI with HOP-62 NSCLC, in the test on SK-MEL-2 melanoma, with M14 melanoma, in the test with U251 CNS, in the test with NCI-H522 lung and in the test on OVCAR-8 ovarian was over 100 µM in each case. Also, the TGI in the test with NCI-H23 lung and in the test on HT29 colon was over 100 µM in each case.

On to `CC(C)=CC(=O)Cc1nc2ccccc2[nH]c1=O`, for which the TGI in the test on HOP-62 NSCLC, in the test with SK-MEL-2 melanoma, in the test with M14 melanoma, in the test with U251 CNS, in the test with RPMI-8226 leukemia and in the test with A498 renal was over 100 µM throughout. For the same compound, the TGI with NCI-H23 lung and in the test on HT29 colon was over 100 µM throughout.

For `O=C(CNC(=O)c1cccc2ccccc12)Nc1ccccc1Oc1cccc(O)c1`, the GI50 in the test on HOP-62 NSCLC is 8.22 µM; in the test on M14 melanoma, 1.56 µM; in the test with U251 CNS, 8.41 µM; in the test with RPMI-8226 leukemia it was 8.04 µM; in the test on NCI-H522 lung, 1.62 µM; in the test on A498 renal it was 5.11 µM. For the same compound, the GI50 with OVCAR-8 ovarian is 11.4 µM; in the test with NCI-H23 lung, 16 µM; in the test with HT29 colon, 21.4 µM. Further, the TGI with HOP-62 NSCLC, in the test with M14 melanoma, with U251 CNS, with RPMI-8226 leukemia, in the test with NCI-H522 lung and in the test with A498 renal was over 25 µM in each case. The TGI in the test with OVCAR-8 ovarian, in the test on NCI-H23 lung and with HT29 colon was over 25 µM in each case.

As for `COc1ccc(-c2ccc(/C=N/n3cn[nH]c3=S)o2)c([N+](=O)[O-])c1`, the GI50 in the test on HOP-62 NSCLC was 62.2 µM; with M14 melanoma, 49 µM; in the test on RPMI-8226 leukemia it was 22.5 µM; with NCI-H522 lung it was 40.2 µM; in the test with A498 renal, 1.35 µM; in the test with OVCAR-8 ovarian, 38.2 µM. The GI50 is 39.3 µM in the test with NCI-H23 lung and 32.6 µM in the test on HT29 colon. Also, the TGI in the test on HOP-62 NSCLC was over 100 µM; in the test on M14 melanoma it was over 100 µM; in the test on RPMI-8226 leukemia, 70.1 µM; in the test with NCI-H522 lung it was over 100 µM; with A498 renal it was 10.3 µM; with OVCAR-8 ovarian it was over 100 µM. Besides, the TGI in the test on NCI-H23 lung and with HT29 colon was over 100 µM each time.

With `O=S(=O)(O)C(F)(F)C(F)(F)C(F)(F)C(F)(F)F`, the TGI with HOP-62 NSCLC, in the test on SK-MEL-2 melanoma, with M14 melanoma, with U251 CNS, with RPMI-8226 leukemia and in the test with A498 renal was over 100 µM each time. Besides, the TGI in the test with OVCAR-8 ovarian, in the test with NCI-H23 lung and with HT29 colon was over 100 µM in each case.
